# Measurements as given in patent US9169254B2, “Spiroimidazolone derivative” (Chugai Seiyaku Kabushiki Kaisha, priority 2009, dated 2015).
# Target: T1, human PTH1 receptor (Homo sapiens, UniProt Q03431)
# T1 sequence (Q03431 27-593): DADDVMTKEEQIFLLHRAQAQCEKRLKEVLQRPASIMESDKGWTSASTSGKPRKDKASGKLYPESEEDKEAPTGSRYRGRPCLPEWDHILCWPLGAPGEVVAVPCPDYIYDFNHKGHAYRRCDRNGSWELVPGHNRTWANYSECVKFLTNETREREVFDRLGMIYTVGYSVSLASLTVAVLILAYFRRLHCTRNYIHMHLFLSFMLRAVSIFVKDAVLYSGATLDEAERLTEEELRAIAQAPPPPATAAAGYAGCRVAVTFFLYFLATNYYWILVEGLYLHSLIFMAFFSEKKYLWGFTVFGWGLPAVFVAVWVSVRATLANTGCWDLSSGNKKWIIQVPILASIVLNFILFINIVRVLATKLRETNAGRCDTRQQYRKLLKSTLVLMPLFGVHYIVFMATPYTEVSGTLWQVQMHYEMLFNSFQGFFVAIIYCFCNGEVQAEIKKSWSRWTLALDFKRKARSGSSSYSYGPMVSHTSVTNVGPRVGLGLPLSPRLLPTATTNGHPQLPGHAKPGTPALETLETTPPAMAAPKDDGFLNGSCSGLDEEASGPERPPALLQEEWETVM
# Assay: In vitro cAMP signal activity in HKRK-B7 cells (LLC-PK1 cells overexpressing the human PTH1 receptor)
# Format: cell-based
# Details: HKRK-B7 cells; compound at 1×10^−3 M; cAMP produced as percentage of that produced by hPTH(1-34) at 100 nM
row,Compound,cAMP production activity (%)
1,"Cc1cc(CNC(N)=O)cc(C)c1CCS(=O)(=O)N1CCC2(CC1)N=C(C1CCC(C)CC1)NC2=O (stereo not drawn) [Compound 1314, (3,5-dimethyl-4-{2-[2-(4-methyl-cyclohexyl)-4-oxo-1,3,8-triaza-spiro[4.5]dec-1-ene-8-sulfonyl]-ethyl}-benzyl)-urea]",78
2,"Cc1cc(N(C)C(N)=O)cc(C)c1/C=C/S(=O)(=O)N1CCC2(CC1)N=C(CCCCCCCCCCCN)NC2=O [Compound 1315, 1-(4-{(E)-2-[2-(11-Amino-undecyl)-4-oxo-1,3,8-triaza-spiro[4.5]dec-1-ene-8-sulfonyl]-vinyl}-3,5-dimethyl-phenyl)-1-methyl-urea]",76
3,"CCC[S+]([O-])CCCCCC1=NC2(CCN(S(=O)(=O)/C=C/c3c(C)cc(N(C)C(N)=O)cc3C)CC2)C(=O)N1 (stereo not drawn) [Compound 1316, 1-[3,5-Dimethyl-4-((E)-2-{4-oxo-2-[5-(propane-1-sulfinyl)-pentyl]-1,3,8-triaza-spiro[4.5]dec-1-ene-8-sulfonyl}-vinyl)-phenyl]-1-methyl-urea]",2.9
4,"CC[S+]([O-])CCCCCCC1=NC2(CCN(S(=O)(=O)CCc3c(C)cc(N(C)C(N)=O)cc3C)CC2)C(=O)N1 (stereo not drawn) [Compound 1317, 1-(4-{2-[2-(6-ethanesulfinyl-hexyl)-4-oxo-1,3,8-triaza-spiro[4.5]dec-1-ene-8-sulfonyl]-ethyl}-3,5-dimethyl-phenyl)-1-methyl-urea]",3.4
5,"CCCS(=O)(=O)CCCCCC1=NC2(CCN(S(=O)(=O)/C=C/c3c(C)cc(N(C)C(N)=O)cc3C)CC2)C(=O)N1 [Compound 1318, 1-[3,5-Dimethyl-4-((E)-2-{4-oxo-2-[5-(propane-1-sulfonyl)-pentyl]-1,3,8-triaza-spiro[4.5]dec-1-ene-8-sulfonyl}-vinyl)-phenyl]-1-methyl-urea]",19
6,"Cc1cc(N(C)C(N)=O)cc(C)c1/C=C/S(=O)(=O)N1CCC2(CC1)N=C(CCCCCCCS(C)(=O)=O)NC2=O [Compound 1319, 1-(4-{(E)-2-[2-(7-methanesulfonyl-heptyl)-4-oxo-1,3,8-triaza-spiro[4.5]dec-1-ene-8-sulfonyl]-vinyl}-3,5-dimethyl-phenyl)-1-methyl-urea]",5.8
7,"CCS(=O)(=O)CCCCCCC1=NC2(CCN(S(=O)(=O)CCc3c(C)cc(N(C)C(N)=O)cc3C)CC2)C(=O)N1 [Compound 1320, 1-(4-{2-[2-(6-ethanesulfonyl-hexyl)-4-oxo-1,3,8-triaza-spiro[4.5]dec-1-ene-8-sulfonyl]-ethyl}-3,5-dimethyl-phenyl)-1-methyl-urea]",10
8,"Cc1cc(N(C)C(N)=O)cc(C)c1/C=C/S(=O)(=O)N1CCC2(CC1)N=C(CCCCCCCCC(F)F)NC2=O [Compound 1321, 1-(4-{(E)-2-[2-(9,9-Difluoro-nonyl)-4-oxo-1,3,8-triaza-spiro[4.5]dec-1-ene-8-sulfonyl]-vinyl}-3,5-dimethyl-phenyl)-1-methyl-urea]",63
9,"Cc1cc(N(C)C(N)=O)cc(C)c1CCS(=O)(=O)N1CCC2(CC1)N=C(CCCCCCCCCO)NC2=O [Compound 1322, 1-(4-{2-[2-(9-Hydroxy-nonyl)-4-oxo-1,3,8-triaza-spiro[4.5]dec-1-ene-8-sulfonyl]-ethyl}-3,5-dimethyl-phenyl)-1-methyl-urea]",80
10,"Cc1cc(N(C)C(N)=O)cc(C)c1CCS(=O)(=O)N1CCC2(CC1)N=C(CCCCCCCCC(F)F)NC2=O [Compound 1323, 1-(4-{2-[2-(9,9-Difluoro-nonyl)-4-oxo-1,3,8-triaza-spiro[4.5]dec-1-ene-8-sulfonyl]-ethyl}-3,5-dimethyl-phenyl)-1-methyl-urea]",78
11,"Cc1cc(N(C)C(N)=O)cc(C)c1CCS(=O)(=O)N1CCC2(CC1)N=C(CCCCCCCCCN)NC2=O [Compound 1324, 1-(4-{2-[2-(9-Amino-nonyl)-4-oxo-1,3,8-triaza-spiro[4.5]dec-1-ene-8-sulfonyl]-ethyl}-3,5-dimethyl-phenyl)-1-methyl-urea]",1.0
12,"Cc1cc(N(C)C(N)=O)cc(C)c1/C=C/S(=O)(=O)N1CCC2(CC1)N=C(CCCCCCCCCF)NC2=O [Compound 1325, 1-(4-{(E)-2-[2-(9-Fluoro-nonyl)-4-oxo-1,3,8-triaza-spiro[4.5]dec-1-ene-8-sulfonyl]-vinyl}-3,5-dimethyl-phenyl)-1-methyl-urea]",113
13,"Cc1cc(N(C)C(N)=O)cc(C)c1/C=C\S(=O)(=O)N1CCC2(CC1)N=C(CCCCCCCCCF)NC2=O [Compound 1326, 1-(4-{(Z)-2-[2-(9-fluoro-nonyl)-4-oxo-1,3,8-triaza-spiro[4.5]dec-1-ene-8-sulfonyl]-vinyl}-3,5-dimethyl-phenyl)-1-methyl-urea]",84
14,"Cc1cc(N(C)C(N)=O)cc(C)c1CCS(=O)(=O)N1CCC2(CC1)N=C(CCCCCCCCCF)NC2=O [Compound 1327, 1-(4-{2-[2-(9-Fluoro-nonyl)-4-oxo-1,3,8-triaza-spiro[4.5]dec-1-ene-8-sulfonyl]-ethyl}-3,5-dimethyl-phenyl)-1-methyl-urea]",92
15,"Cc1cc(OC[C@H](O)CO)cc(C)c1CCS(=O)(=O)N1CCC2(CC1)N=C(c1cccc(OCCCC(F)(F)C(F)(F)F)c1)NC2=O [Compound 1328, 8-{2-[4-((R)-2,3-Dihydroxy-propoxy)-2,6-dimethyl-phenyl]-ethanesulfonyl}-2-[3-(4,4,5,5,5-pentafluoro-pentyloxy)-phenyl]-1,3,8-triaza-spiro[4.5]dec-1-en-4-one]",93
16,"Cc1cc(OC[C@H](O)CO)cc(C)c1CCS(=O)(=O)N1CCC2(CC1)N=C(c1ccc(F)c(OC(F)(F)F)c1)NC2=O [Compound 1329, 8-{2-[4-((R)-2,3-dihydroxy-propoxy)-2,6-dimethyl-phenyl]-ethanesulfonyl}-2-(4-fluoro-3-trifluoromethoxy-phenyl)-1,3,8-triaza-spiro[4.5]dec-1-en-4-one]",85
17,"Cc1cc(OC[C@H](O)CO)cc(C)c1CCS(=O)(=O)N1CCC2(CC1)N=C(c1ccc3c(c1)OC(F)(F)O3)NC2=O [Compound 1330, 2-(2,2-difluoro-benzo[1,3]dioxol-5-yl)-8-{2-[4-((R)-2,3-dihydroxy-propoxy)-2,6-dimethyl-phenyl]-ethanesulfonyl}-1,3,8-triaza-spiro[4.5]dec-1-en-4-one]",9.2
18,"Cc1cc(C(=O)N2CCC(O)CC2)cc(C)c1CCS(=O)(=O)N1CCC2(CC1)N=C(c1ccc3c(c1)OC(F)(F)O3)NC2=O [Compound 1333, 2-(2,2-difluoro-benzo[1,3]dioxol-5-yl)-8-{2-[4-(4-hydroxy-piperidine-1-carbonyl)-2,6-dimethyl-phenyl]-ethanesulfonyl}-1,3,8-triaza-spiro[4.5]dec-1-en-4-one]",109
19,"Cc1cc(C(=O)N2CCC(O)CC2)cc(C)c1CCS(=O)(=O)N1CCC2(CC1)N=C(c1ccc(F)c(OC(F)(F)F)c1)NC2=O [Compound 1334, 2-(4-fluoro-3-trifluoromethoxy-phenyl)-8-{2-[4-(4-hydroxy-piperidine-1-carbonyl)-2,6-dimethyl-phenyl]-ethanesulfonyl}-1,3,8-triaza-spiro[4.5]dec-1-en-4-one]",116
20,"Cc1cc(C(=O)N2CCC(C)(O)CC2)cc(C)c1CCS(=O)(=O)N1CCC2(CC1)N=C(c1ccc(F)c(OC(F)(F)F)c1)NC2=O [Compound 1335, 2-(4-fluoro-3-trifluoromethoxy-phenyl)-8-{2-[4-(4-hydroxy-4-methyl-piperidine-1-carbonyl)-2,6-dimethyl-phenyl]-ethanesulfonyl}-1,3,8-triaza-spiro[4.5]dec-1-en-4-one]",97
21,"Cc1cc(C(=O)N2CCC(C)(O)CC2)cc(C)c1CCS(=O)(=O)N1CCC2(CC1)N=C(c1ccc3c(c1)OC(F)(F)O3)NC2=O [Compound 1336, 2-(2,2-difluoro-benzo[1,3]dioxol-5-yl)-8-{2-[4-(4-hydroxy-4-methyl-piperidine-1-carbonyl)-2,6-dimethyl-phenyl]-ethanesulfonyl}-1,3,8-triaza-spiro[4.5]dec-1-en-4-one]",133
22,"Cc1cc(C(=O)N2CC(O)C2)cc(C)c1CCS(=O)(=O)N1CCC2(CC1)N=C(c1ccc(F)c(OC(F)(F)F)c1)NC2=O [Compound 1337, 2-(4-fluoro-3-trifluoromethoxy-phenyl)-8-{2-[4-(3-hydroxy-azetidine-1-carbonyl)-2,6-dimethyl-phenyl]-ethanesulfonyl}-1,3,8-triaza-spiro[4.5]dec-1-en-4-one]",44
23,"Cc1cc(N(C)C(N)=O)cc(C)c1CCS(=O)(=O)N1CCC2(CC1)N=C(c1cccc(OCCCC(F)(F)F)c1)NC2=O [Compound 1338, 1-[3,5-dimethyl-4-(2-{4-oxo-2-[3-(4,4,4-trifluoro-butoxy)-phenyl]-1,3,8-triaza-spiro[4.5]dec-1-ene-8-sulfonyl}-ethyl)-phenyl]-1-methyl-urea]",84
24,"Cc1cc(N(C)C(N)=O)cc(C)c1CCS(=O)(=O)N1CCC2(CC1)N=C(c1ccc(OCCCC(F)(F)F)cc1)NC2=O [Compound 1339, 1-[3,5-dimethyl-4-(2-{4-oxo-2-[4-(4,4,4-trifluoro-butoxy)-phenyl]-1,3,8-triaza-spiro[4.5]dec-1-ene-8-sulfonyl}-ethyl)-phenyl]-1-methyl-urea]",86
